Target: T1, recombinant human Meningioma Expressed Antigen 5 (MGEA5), also referred to as O-GlcNAcase (OGA) (Homo sapiens, UniProt O60502)
T1 construct: Full length OGA enzyme was purchased at OriGene (cat #TP322411); purchased OriGene TP322411
T1 sequence (O60502 1-916): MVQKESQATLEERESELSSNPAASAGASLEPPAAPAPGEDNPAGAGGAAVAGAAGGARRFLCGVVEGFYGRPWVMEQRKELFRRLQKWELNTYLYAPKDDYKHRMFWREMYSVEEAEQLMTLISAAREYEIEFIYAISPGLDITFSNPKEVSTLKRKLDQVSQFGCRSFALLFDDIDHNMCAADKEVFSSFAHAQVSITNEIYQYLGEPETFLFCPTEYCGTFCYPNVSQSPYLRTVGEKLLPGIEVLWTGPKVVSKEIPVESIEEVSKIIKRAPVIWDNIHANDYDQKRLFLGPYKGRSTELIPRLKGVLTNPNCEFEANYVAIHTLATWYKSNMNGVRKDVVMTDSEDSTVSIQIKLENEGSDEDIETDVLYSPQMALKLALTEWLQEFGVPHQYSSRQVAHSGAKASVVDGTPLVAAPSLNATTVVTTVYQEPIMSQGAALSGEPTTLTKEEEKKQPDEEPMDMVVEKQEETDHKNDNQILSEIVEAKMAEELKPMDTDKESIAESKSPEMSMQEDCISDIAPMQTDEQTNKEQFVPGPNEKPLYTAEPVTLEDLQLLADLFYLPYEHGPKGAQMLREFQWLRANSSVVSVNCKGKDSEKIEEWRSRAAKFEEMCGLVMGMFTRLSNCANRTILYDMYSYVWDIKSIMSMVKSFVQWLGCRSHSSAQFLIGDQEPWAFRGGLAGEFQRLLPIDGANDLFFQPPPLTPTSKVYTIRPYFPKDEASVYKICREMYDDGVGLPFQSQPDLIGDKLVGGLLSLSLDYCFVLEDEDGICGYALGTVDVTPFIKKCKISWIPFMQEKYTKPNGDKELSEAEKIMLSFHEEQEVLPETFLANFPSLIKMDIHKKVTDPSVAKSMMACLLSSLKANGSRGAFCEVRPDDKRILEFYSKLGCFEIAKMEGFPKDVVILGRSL
Test: OGA biochemical assay (inhibition of FM-GlcNAc hydrolysis, fluorescence)
Conditions: FM-GlcNAc substrate; for IC50: 6 h at room temperature, read-out: Enzymatic hOGA, pIC50 (converted); for Emax / Enzymatic Emax (%): maximal effect; for Emax: read-out: Enzymatic Emax (%)
Source text: The assay is based on the inhibition of the hydrolysis of fluorescein mono-β-D-N-Acetyl-Glucosamine (FM-GlcNAc) (Mariappa et al. 2015, Biochem J 470:255) by the recombinant human Meningioma Expressed Antigen 5 (MGEA5), also referred to as O-GlcNAcase (OGA). The hydrolysis FM-GlcNAc (Marker Gene technologies, cat #M1485) results in the formation of β-D-N-glucosamineacetate and fluorescein. The fluorescence of the latter can be measured at excitation wavelength 485 nm and emission wavelength 538 nm. An increase in enzyme activity results in an increase in fluorescence signal. Full length OGA enzyme was purchased at OriGene (cat #TP322411). The enzyme was stored in 25 mM Tris.HCl, pH 7.3, 100 mM glycine, 10% glycerol at −20° C. Thiamet G and GlcNAcStatin were tested as reference compounds (Yuzwa et al. 2008 Nature Chemical Biology 4:483; Yuzwa et al. 2012 Nature Chemical Biology 8:393). The assay was performed in 200 mM Citrate/phosphate buffer supplemented with 0.005% Tween-20. 35.6 g Na2HPO4 2 H2O (Sigma, #C0759) were dissolved in 1 L water to obtain a 200 mM solution. 19.2 g citric acid (Merck, #1.06580) was dissolved in 1 L water to obtain a 100 mM solution. pH of the sodium phosphate solution was adjusted with the citric acid solution to 7.2. The buffer to stop the reaction consists of a 500 mM Carbonate buffer, pH 11.0. 734 mg FM-GlcNAc were dissolved in 5.48 mL DMSO to obtain a 250 mM solution and was stored at −20° C. OGA was used at a 2 nM concentration and FM-GlcNAc at a 100 uM final concentration. Dilutions were prepared in assay buffer.
50 nl of a compound dissolved in DMSO was dispensed on Black Proxiplate™ 384 Plus Assay plates (Perkin Elmer, #6008269) and 3 μl fl-OGA enzyme mix added subsequently. Plates were pre-incubated for 60 min at room temperature and then 2 μl FM-GlcNAc substrate mix added. […] Plates were briefly centrifuged for 1 min at 1000 rpm and incubate at room temperature for 6 h. To stop the reaction 5 μl STOP buffer were added and plates centrifuge again 1 min at 1000 rpm. Fluorescence was quantified in the Thermo Scientific Fluoroskan Ascent or the PerkinElmer EnVision with excitation wavelength 485 nm and emission wavelength 538 nm.
For analysis a best-fit curve is fitted by a minimum sum of squares method. From this an IC50 value and Hill coefficient was obtained. High control (no inhibitor) and low control (saturating concentrations of standard inhibitor) were used to define the minimum and maximum values.

Compound	IC50 [µM]	Emax [%]	Enzymatic Emax (%)
COc1cc(O[C@H]2CCN(C(C)c3ccc4c(n3)OCCO4)C2)cc(C)n1 (single isomer, unassigned) [Product 64]	0.398	99	–
Cc1cc(C[C@H]2CCN([C@H](C)c3ccc4c(c3)OCC4)C2)cc(C)n1 (single isomer, unassigned) [Product 13]	1	91	–
Cc1cc(C[C@H]2CCN(C(C)c3cc4c(cc3F)OCCO4)C2)cc(C)n1 (stereo partly drawn) [Product 30]	0.02	102	–
COc1cc(O[C@H]2CCN(C(C)c3ccc4c(n3)OCCO4)C2)cc(C)n1 (stereo partly drawn) [Product 63]	1	95	–
Cc1cnc(C[C@H]2CCN(C(C)c3ccc4c(n3)OCCO4)C2)c(C)n1 (stereo partly drawn) [Product 24]	0.251	101	–
CC(c1cc2c(cc1F)OCCO2)N1CC[C@H](Cc2ncc(F)cc2F)C1 (single isomer, unassigned) [Product 28]	5.01	–	67
COc1cc(C[C@@H]2CCN([C@H](C)c3cc4c(cc3F)OCCO4)C2)cc(C)n1 [Product 42]	1	93	–
Cc1cc(C2CCN(C(C)c3ccc4c(n3)OCCO4)C2)cc(C)n1 (stereo not drawn) [Product 3]	0.501	99	–
Cc1cnc(C[C@H]2CCN(C(C)c3ccc4c(n3)OCCO4)C2)c(C)n1 (single isomer, unassigned) [Product 25]	0.158	–	100
COc1cc(C[C@H]2CCN(C(C)c3cnc4c(c3)C(=O)N(C)CC4)C2)cc(C)n1 (stereo partly drawn) [Product 33]	0.126	102	–
CC(c1ccc2c(n1)OCCO2)N1CC[C@H](Cc2ncc(F)cc2F)C1 (single isomer, unassigned) [Product 23]	0.398	97	–
Cc1cc(C[C@H]2CCN(C(C)c3ccc4c(c3)OCCN4C)C2)cc(C)n1 (stereo partly drawn) [Product 1]	2	85	–
Cc1cc(OCC2(C)CCN(C(C)c3ccc4c(n3)OCCO4)C2)cc(C)n1 (stereo not drawn) [Product 77]	0.794	94	–
CC(c1cc2c(cc1F)OCCO2)N1CC[C@H](Cc2ncc(F)cc2F)C1 (stereo partly drawn) [Product 27]	0.126	102	–
Cc1cnc(C[C@H]2CCN(C(C)c3ccc4c(n3)OCCO4)C2)c(C)n1 (single isomer, unassigned) [Product 26]	> 10	–	35
Cc1cc(C[C@H]2CCN(Cc3ccc4c(c3)OCCN4C)C2)cc(C)n1 [Product 2]	6.17	61	–
C[C@H](c1ccc2c(n1)OCCO2)N1CC[C@H](Cc2ncc(F)cc2F)C1 (single isomer, unassigned) [Product 22]	> 10	32	–
Cc1cc(C[C@H]2CCN([C@H](C)c3cc4c(cc3F)OCCO4)C2)cc(C)n1 [Product 31]	0.631	96	–
Cc1cc(C[C@H]2CCN(C(C)c3ccc4c(n3)OCCO4)C2)cc(C)n1 (stereo partly drawn) [Product 12]	0.158	101	–
Cc1cc(OC[C@@H]2CCN(C(C)c3ccc4c(n3)OCCO4)C2)cc(C)n1 (stereo partly drawn) [Product 46]	0.251	97	–
COc1cc(O[C@@H]2CCN(C(C)c3ccc4c(n3)OCCO4)C2)cc(C)n1 (mixture of isomers) [Product 76]	1.58	84	–
CC(c1ccc2c(n1)OCCO2)N1CC[C@H](Cc2ncc(F)cc2F)C1 (stereo partly drawn) [Product 21]	0.631	94	–
COc1cc(C[C@H]2CCN([C@H](C)c3cnc4c(c3)C(=O)N(C)CC4)C2)cc(C)n1 [Product 34]	7.94	58	–
Cc1cc(C[C@@H]2CCN([C@H](C)c3cc4c(cc3F)OCCO4)C2)cc(C)n1 [Product 44]	0.251	99	–
Cc1cc(O[C@H]2CCN(C(C)c3ccc4c(n3)OCCO4)C2)cc(C)n1 (mixture of isomers) [Product 70]	1.26	94	–
COc1cc(C[C@H]2CCN(C(C)c3ccc4c(n3)OCCO4)C2)cc(C(F)(F)F)n1 (stereo partly drawn) [Product 4]	0.1	103	–

Next, values leading:

IC50 [µM]	Emax [%]	Enzymatic Emax (%)	Compound
0.0631	101	–	Cc1cc(C[C@@H]2CCN(C(C)c3ccc4c(n3)OCCO4)C2)cc(C)n1 (mixture of isomers) [Product 78]
0.794	92	–	COc1cc(C[C@H]2CCN([C@H](C)c3cc4c(cc3F)NCCO4)C2)cc(C)n1 (racemic) [Product 81]
7.94	55	–	COc1cc(C[C@]2(C)CCN([C@@H](C)c3ccc4c(n3)OCCO4)C2)cc(C)n1 (single isomer, unassigned) [Product 93]
0.1	100	–	COc1cc(C[C@@H]2CCN(C(C)c3ccc4c(n3)OCCO4)C2)cc(C)n1 (mixture of isomers) [Product 89]
> 10	–	38	COc1cc(C[C@H]2CCN(C(C)c3ccc4c(n3)OCCC4)C2)cc(C)n1 (single isomer, unassigned) [Product 88]
> 10	–	37	Cc1cnc(C[C@H]2CCN(C(C)c3cc4c(cc3F)OCCO4)C2)c(C)n1 (single isomer, unassigned) [Product 97]
0.158	100	–	COc1cc(CC2(C)CCN(C(C)c3ccc4c(n3)OCCO4)C2)cc(C)n1 (mixture of isomers) [Product 91]
0.2	–	99	COc1cc(C[C@H]2CCN(C(C)c3nc4c(cc3F)CCO4)C2)cc(C)n1 (single isomer, unassigned) [Product 85]
0.0631	101	–	Cc1cnc(C[C@H]2CCN(C(C)c3cc4c(cc3F)OCCO4)C2)c(C)n1 (mixture of isomers) [Product 96]
6.31	63	–	COc1cc(C[C@]2(C)CCN([C@H](C)c3ccc4c(n3)OCCO4)C2)cc(C)n1 (single isomer, unassigned) [Product 92]
1	93	–	COc1cc(C[C@@]2(C)CCN([C@H](C)c3ccc4c(n3)OCCO4)C2)cc(C)n1 (single isomer, unassigned) [Product 94]
0.126	–	99	COc1cc(C[C@H]2CCN(C(C)c3ccc4c(n3)OCCC4)C2)cc(C)n1 (single isomer, unassigned) [Product 87]
0.0316	–	103	Cc1cnc(C[C@H]2CCN(C(C)c3cc4c(cc3F)OCCO4)C2)c(C)n1 (single isomer, unassigned) [Product 98]

— patent US20210277015A1, “OGA INHIBITOR COMPOUNDS” (Janssen Pharmaceutica NV, priority 2018, published 2021)
